Results on 23 compounds are retold here after patent US20090069320A1, “Substituted 4-Amino-Quinazoline Compounds with Metabotropic Glutamate Receptor Regulating Activity and Uses Thereof” (Gruenenthal GmbH, priority 2006, published 2009).

Structures can show the parent of a compound that is named as a salt.

One assay concerns the target T1, mGluR5 receptor (human) (Homo sapiens, UniProt P41594).
T1 construct: host or cells: CHO
Description: Functional Ca2+ influx assay in CHO-hmGluR5 cells (DHPG 10 μM, FLIPR). It is filed as cell-based. The protocol:
V. Functional Ca^2+ Influx Assay
20,000 CHO-hmGluR5 cells/well (Euroscreen, Gosselies, Belgium) are pipetted into 96-well plates (BD Biosciences, Heidelberg, Germany, Ref. 356640, clear bottom, 96-well, poly-D-lysine) and incubated overnight in HBSS buffer (Gibco 14025-050) with the following additions: 10% FCS (GIBCO, 10270-106) and doxycycline (BD Biosciences Clontech 631311 600 ng/ml).
For the functional study the cells were charged with 2 μM of Fluo-4 and 0.01% by vol. pluronic F127 (Molecular Probes Europe BV, Leiden, The Netherlands) in HBSS buffer (Hank's buffered saline solution, Gibco Invitrogen GmbH, Karlsruhe, Germany) with probenicide (Sigma P8761, […]) for 30 min. at 37° C.
The cells are then washed 3 times with washing buffer (HBSS buffer, Gibco No. 14025-050), with probenicide (Sigma P8761, 0.69 mg/ml) and then taken up with the same buffer ad 100 μl. After 15 min. the plates for determining the Ca^2+ measurements in the presence of DHPG ((S)-3,5-dihydroxyphenylglycine, Tocris Biotrend Chemikalien GmbH, Cologne, Germany, final DHPG concentration: 10 μM) and also in the presence or absence of test substances are transferred into a fluorometric imaging plate reader (FLIPR, Molecular Devices, Sunnyvale, Calif.).
The Ca^2+-dependent fluorescence is measured before and after the addition of test substances. The quantification occurs through the measurement of the highest fluorescence intensity over time. After the fluorescence base line has been recorded for 10 sec. 50 μl of test substance solution (different test substance concentrations in HBSS buffer with 1% DMSO and 0.02% Tween 20, Sigma) are added and the fluorescence signal is measured for 6 min. 50 μl of DHPG solution ((S)-3,5-dihydroxyphenylglycine, Tocris Biotrend Chemikalien GmbH, Cologne, Germany, final DHPG concentration: 10 μM) are then added and the influx of Ca^2+ is measured simultaneously for 60 sec. The final DMSO concentration amounts to 0.25% and the final Tween 20 content amounts to 0.005%. The data are analysed with Microsoft Excel and GraphPad Prism. The dose effect curves are calculated with non-linear regression and IC50 values determined. Each data point is determined 3 times and IC50 values are averaged from a minimum of 2 independent measurements. Ki values are calculated according to the following formula:
Ki=IC50/(1+(AGconc./EC50)).
AGconc.=10 μM; EC50 corresponds to the DHPG concentration necessary for the half-maximum influx of Ca^2+.

A further assay concerns the target T2, mGluR5 receptor (Sus scrofa, UniProt I3LUI7).
T2 construct: 450 μg of protein from brain homogenate with 5 nM ^3[H]-MPEP; from tissue; host or cells: pig brain halves without medulla, cerebellum and pons
Description: [3H]-MPEP mGluR5 receptor binding assay (pig brain homogenate). The conditions noted are these: 5 nM [3H]-MPEP; for IC50: read-out: IC50 mGluR5 Receptor (pig) [^3H]-MPEP Bond; for inhibition at 10 µM: 10 μM compound, read-out: % Inhibition of mGluR5 Receptor (pig) [^3H]-MPEP Bond at 10 μM. The procedure, abridged:
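Radioligand displacement of 5 nM [3H]-MPEP from pig brain homogenate (450 μg protein; medulla, cerebellum and pons removed) in 20 mM Hepes pH 8.0. Compounds were tested at 10 μM, incubated 60 min at room temperature, then filtered and counted by scintillation. Non-specific binding was defined with 10 μM MPEP.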

Another assay in a line: Formalin test on rats. The assay is classed as in vivo, rat. Here is the method: IIa. Formalin Test on Rats:
The formalin test (Dubuisson, D. and Dennis, S. G., 1977, Pain, 4, 161-174) represents a model for acute as well as chronic pain. By a single formalin injection into the dorsal side of a rear paw a biphase nociceptive reaction is inducted in free-moving test animals that is detected by observation of three clearly distinguishable behavior patterns. The reaction is two-phase: phase I=immediate reaction (duration up to 10 min.; paw shaking, licking), phase 2=late reaction (after a resting phase; likewise paw shaking, licking; duration up to 60 min.). The first phase reflects a direct stimulation of the peripheral nocisensors with high spinal nociceptive input or glutamate release (acute pain phase); the second phase reflects a spinal and peripheral hypersensitisation (chronic pain phase). The chronic pain component (phase 2) was evaluated in the studies presented here.
Formalin is applied subcutaneously in a volume of 50 μl and a concentration of 5% into the dorsal side of the right rear paw of each animal. […] The specific changes in behavior such as lifting and shaking of the paw, shifting weight of the animal as well as biting and licking reactions are observed and recorded in the observation period of 21 to 27 min. after the formalin injection. […]

T1 sequence (P41594 21-1212): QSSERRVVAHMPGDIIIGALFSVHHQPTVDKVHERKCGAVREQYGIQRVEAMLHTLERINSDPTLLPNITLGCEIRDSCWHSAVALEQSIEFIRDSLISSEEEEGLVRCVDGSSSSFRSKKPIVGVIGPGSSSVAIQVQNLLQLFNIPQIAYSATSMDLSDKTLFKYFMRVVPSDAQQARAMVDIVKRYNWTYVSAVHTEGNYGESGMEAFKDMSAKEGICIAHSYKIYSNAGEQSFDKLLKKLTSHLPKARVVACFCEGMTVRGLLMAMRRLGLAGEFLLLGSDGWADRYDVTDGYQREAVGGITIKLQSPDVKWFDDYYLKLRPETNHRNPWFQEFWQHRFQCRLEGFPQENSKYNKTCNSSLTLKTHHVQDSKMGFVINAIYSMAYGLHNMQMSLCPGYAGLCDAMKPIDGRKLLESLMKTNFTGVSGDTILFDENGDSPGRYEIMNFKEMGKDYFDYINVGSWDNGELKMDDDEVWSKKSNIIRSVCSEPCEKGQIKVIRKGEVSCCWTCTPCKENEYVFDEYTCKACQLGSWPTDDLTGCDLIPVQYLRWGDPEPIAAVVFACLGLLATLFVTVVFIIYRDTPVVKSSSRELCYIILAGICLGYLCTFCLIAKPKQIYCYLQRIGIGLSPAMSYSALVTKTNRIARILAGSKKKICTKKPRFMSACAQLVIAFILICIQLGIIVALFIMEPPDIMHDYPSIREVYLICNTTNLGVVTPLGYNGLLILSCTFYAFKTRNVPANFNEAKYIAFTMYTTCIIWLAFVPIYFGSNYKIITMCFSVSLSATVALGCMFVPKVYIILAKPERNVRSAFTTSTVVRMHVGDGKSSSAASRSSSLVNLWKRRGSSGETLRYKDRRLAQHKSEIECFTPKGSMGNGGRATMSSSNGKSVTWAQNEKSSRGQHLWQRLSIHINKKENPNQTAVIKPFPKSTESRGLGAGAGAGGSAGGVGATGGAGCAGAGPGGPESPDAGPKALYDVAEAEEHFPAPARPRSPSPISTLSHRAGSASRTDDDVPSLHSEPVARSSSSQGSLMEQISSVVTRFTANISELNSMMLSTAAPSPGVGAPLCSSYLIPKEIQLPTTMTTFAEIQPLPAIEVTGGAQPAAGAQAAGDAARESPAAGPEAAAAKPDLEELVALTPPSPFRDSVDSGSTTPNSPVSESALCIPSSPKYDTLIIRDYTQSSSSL
T2 sequence (I3LUI7 19-1212): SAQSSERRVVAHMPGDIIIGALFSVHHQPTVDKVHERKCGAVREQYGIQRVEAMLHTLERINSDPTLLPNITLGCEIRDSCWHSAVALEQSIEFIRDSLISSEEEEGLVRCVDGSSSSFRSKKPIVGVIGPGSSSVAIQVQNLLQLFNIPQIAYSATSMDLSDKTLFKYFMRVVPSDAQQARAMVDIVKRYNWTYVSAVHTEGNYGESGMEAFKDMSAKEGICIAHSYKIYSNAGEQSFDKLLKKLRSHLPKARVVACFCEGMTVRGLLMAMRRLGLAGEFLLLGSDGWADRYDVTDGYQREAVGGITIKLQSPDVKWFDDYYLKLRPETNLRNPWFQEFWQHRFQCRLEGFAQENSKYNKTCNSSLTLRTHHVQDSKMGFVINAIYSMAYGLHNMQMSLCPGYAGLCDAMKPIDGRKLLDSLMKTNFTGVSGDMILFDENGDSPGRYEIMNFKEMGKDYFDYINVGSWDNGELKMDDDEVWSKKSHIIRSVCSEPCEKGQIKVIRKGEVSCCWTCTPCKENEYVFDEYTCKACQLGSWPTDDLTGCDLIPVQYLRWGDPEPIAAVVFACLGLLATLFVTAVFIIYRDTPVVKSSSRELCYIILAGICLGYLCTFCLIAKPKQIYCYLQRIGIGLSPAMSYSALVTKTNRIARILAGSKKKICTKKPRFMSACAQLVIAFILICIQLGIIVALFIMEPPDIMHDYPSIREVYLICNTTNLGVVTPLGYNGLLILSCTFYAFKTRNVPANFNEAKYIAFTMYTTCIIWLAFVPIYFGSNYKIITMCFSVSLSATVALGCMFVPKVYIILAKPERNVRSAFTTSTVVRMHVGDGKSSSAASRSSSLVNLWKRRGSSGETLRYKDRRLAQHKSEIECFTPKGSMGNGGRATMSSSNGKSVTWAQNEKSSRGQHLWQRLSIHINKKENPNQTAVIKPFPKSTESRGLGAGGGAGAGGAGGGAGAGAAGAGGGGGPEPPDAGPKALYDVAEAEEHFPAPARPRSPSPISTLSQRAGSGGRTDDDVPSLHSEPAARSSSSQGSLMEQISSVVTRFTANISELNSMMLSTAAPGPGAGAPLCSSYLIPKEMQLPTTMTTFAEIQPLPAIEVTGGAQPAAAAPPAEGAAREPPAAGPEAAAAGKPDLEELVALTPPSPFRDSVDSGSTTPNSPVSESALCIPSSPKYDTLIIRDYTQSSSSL

With `O=C(c1ccccc1)N(Cc1cccc(-c2ccc3ncnc(N4CCCC4)c3c2)c1)C1CC1` [Example 121, N-cyclopropyl-N-[3-(4-pyrrolidin-1-yl-quinazolin-6-yl)-benzyl]-benzamide], on mGluR5 receptor (human), the Ki – broadly, a measure of affinity in units of concentration, obtained from inhibition or displacement – amounted to 7.5 nM.
Turning to `CC(C)(C)Nc1ncnc2ccc(-c3cccc(CN4C(=O)CCC4=O)c3)cc12` [Example 196, 1-[3-(4-tert-butylamino-quinazolin-6-yl)-benzyl]-pyrrolidine-2,5-dione hydrochloride], the IC50 (in general, the midpoint of a concentration-inhibition curve) at mGluR5 receptor amounted to 90 nM. The compound also yielded a Ki at mGluR5 receptor (human) of 4.7 nM.
Turning to `CC(C)(C)Nc1ncnc2ccc(-c3ccc(F)c(CN(C(=O)CC#N)C4CC4)c3)cc12` [Example 201, N-[5-(4-tert-butylamino-quinazolin-6-yl)-2-fluoro-benzyl]-2-cyano-N-cyclopropyl-acetamide], the IC50 on mGluR5 receptor turned out to be 30 nM. At mGluR5 receptor (human), this compound came in with a Ki of 2.7 nM. The “Formalin Test” value in “Formalin test on rats” (2.15 mg/kg i.v.) came to 46% effect at.
As to `CC(=O)N(Cc1cccc(-c2ccc3ncnc(NC4CC4)c3c2)c1)C(C)(C)C` [Example 202, N-tert-butyl-N-[3-(4-cyclopropylamino-quinazolin-6-yl)-benzyl]-acetamide], on mGluR5 receptor, the inhibition (usually how much of the control response was suppressed) at 10 µM stood at 55%. The compound also returned a Ki on mGluR5 receptor (human) of 3.3 nM.
On to `N#CCC(=O)N(Cc1cccc(-c2ccc3ncnc(NC4CC4)c3c2)c1)C1CC1` [Example 211, 2-cyano-N-cyclopropyl-N-[3-(4-cyclopropylamino-quinazolin-6-yl)-benzyl]-acetamide], for which the IC50 on mGluR5 receptor turned out to be 70 nM. This compound also gave a Ki on mGluR5 receptor (human) of 8.4 nM.
Take `CC1CC(=O)N(Cc2cccc(-c3ccc4ncnc(NC5CC5)c4c3)c2)C1=O` (centres unmarked) [Example 245, 1-[3-(4-cyclopropylamino-quinazolin-6-yl)-benzyl]-3-methyl-pyrrolidine-2,5-dione]: the 50% inhibitory concentration (IC50) at mGluR5 receptor turned out to be 140 nM. On mGluR5 receptor (human), the Ki amounted to 5.2 nM.
Consider `COc1ccc(CN(C2CC2)S(C)(=O)=O)cc1-c1ccc2ncnc(NC3CC3)c2c1` [Example 250, N-cyclopropyl-N-(3-(4-(cyclopropylamino)quinazolin-6-yl)-4-methoxybenzyl)methane sulfonamide], for which the IC50 at mGluR5 receptor came to 120 nM. Moreover, the inhibition constant Ki at mGluR5 receptor (human) was determined as 5 nM.
The like results for `O=C1CCC(=O)N1Cc1cccc(-c2ccc3ncnc(NC4CC4)c3c2)c1` [Example 258, 1-[3-(4-cyclopropylamino-quinazolin-6-yl)-benzyl]-pyrrolidine-2,5-dione] were, in that order, 50 nM and 3.9 nM.
Take `CC(=O)N(Cc1cc(-c2ccc3ncnc(NC4CC4)c3c2)ccc1F)C1CC1` [Example 260, N-cyclopropyl-N-[5-(4-cyclopropylamino-quinazolin-6-yl)-2-fluoro-benzyl]-acetamide]: the half-inhibitory concentration (IC50) on mGluR5 receptor was determined as 30 nM. This compound also had an inhibitory constant (Ki) at mGluR5 receptor (human) of 0.8 nM. In “Formalin test on rats” (10 mg/kg i.v.), the “Formalin Test” value turned out to be 80% effect at.
On to `COc1ccc(CN(C(C)=O)C2CC2)cc1-c1ccc2ncnc(NC3CC3)c2c1` [Example 261, N-cyclopropyl-N-[3-(4-cyclopropylamino-quinazolin-6-yl)-4-methoxy-benzyl]-acetamide], for which the IC50 at mGluR5 receptor worked out at 200 nM. The affinity at mGluR5 receptor (human) corresponds to a Ki of 39 nM.
Take `CC(=O)N(Cc1cc(-c2ccc3ncnc(NC4CC4)c3c2)cs1)C1CC1` [Example 262, N-cyclopropyl-N-[4-(4-cyclopropylamino-quinazolin-6-yl)-thiophen-2-ylmethyl]-acetamide]: the half-inhibitory concentration (IC50) at mGluR5 receptor came out at 110 nM. The inhibitory constant (Ki) at mGluR5 receptor (human) stood at 5.9 nM.
The like results for `O=C(c1ccccc1)N(Cc1cc(-c2ccc3ncnc(NC4CC4)c3c2)ccc1F)C1CC1` [Example 269, N-cyclopropyl-N-(5-(4-(cyclopropylamino)quinazolin-6-yl)-2-fluorobenzyl)benzamide] were, in that order, 280 nM and 8 nM.
For `CS(=O)(=O)N(Cc1cccc(-c2ccc3ncnc(NC4CC4)c3c2)c1)C1CC1` [Example 270, N-cyclopropyl-N-(3-(4-(cyclopropylamino)quinazolin-6-yl)benzyl)methane sulfonamide], at mGluR5 receptor, the IC50 was 280 nM. Besides, the affinity at mGluR5 receptor (human) corresponds to a Ki of 12 nM.
The like results for `CC(=O)N(Cc1cccc(-c2ccc3ncnc(NC4CC4)c3c2)c1)C1CC1` [Example 271, N-cyclopropyl-N-(3-(4-(cyclopropylamino)quinazolin-6-yl)benzyl)acetamide] were, in that order, 140 nM and 8.2 nM.
On to `O=C(N(Cc1cccc(-c2ccc3ncnc(NC4CC4)c3c2)c1)C1CC1)C(F)(F)F` [Example 273, N-cyclopropyl-N-(3-(4-(cyclopropylamino)quinazolin-6-yl)benzyl)-2,2,2-trifluoroacetamide], for which the half-maximal inhibitory concentration (IC50) at mGluR5 receptor came out at 30 nM. For the same compound, the Ki at mGluR5 receptor (human) came to 1.7 nM.
In the case of `CCOC(=O)N(Cc1cccc(-c2ccc3ncnc(NC4CC4)c3c2)c1)C1CC1` [Example 875, ethyl cyclopropyl(3-(4-(cyclopropylamino)quinazolin-6-yl)benzyl)carbamate], the half-maximal inhibitory concentration (IC50) on mGluR5 receptor came to 40 nM. On mGluR5 receptor (human), this compound registered an inhibitory constant (Ki) of 51.1 nM.
The like results for `O=C1CCC(=O)N1Cc1cccc(-c2cc3c(NC4CC4)ncnc3cc2F)c1` [Example 882, 1-(3-(4-(cyclopropylamino)-7-fluoroquinazolin-6-yl)benzyl)pyrrolidine-2,5-dione] were, in that order, 70 nM and 2.7 nM.
Take `COc1cc2ncnc(NC3CC3)c2cc1-c1cccc(CN2C(=O)CCC2=O)c1` [Example 899, 1-(3-(4-(cyclopropylamino)-7-methoxyquinazolin-6-yl)benzyl)pyrrolidine-2,5-dione]: at mGluR5 receptor, the IC50 amounted to 160 nM.
As for `N#CCC(=O)N(Cc1ccc(F)c(-c2ccc3ncnc(NC4CC4)c3c2)c1)C1CC1` [Example 900, 2-cyano-N-cyclopropyl-N-(3-(4-(cyclopropylamino)quinazolin-6-yl)-4-fluorobenzyl)acetamide], at mGluR5 receptor, the inhibition at 10 µM was determined as 81%.
Same read-out and setting: the value for `CN(c1ncnc2ccc(-c3cccc(CN4C(=O)CCC4=O)c3)cc12)C1CC1` [Example 901, 1-(3-(4-(cyclopropyl(methyl)amino)quinazolin-6-yl)benzyl)pyrrolidine-2,5-dione] was 40%; that for `N#CCC(=O)N(Cc1cc(F)cc(-c2ccc3ncnc(NC4CC4)c3c2)c1)C1CC1` [Example 902, 2-cyano-N-cyclopropyl-N-(3-(4-(cyclopropylamino)quinazolin-6-yl)-5-fluorobenzyl)acetamide] was 92%.
Take `CC(=O)N(Cc1nc(-c2ccc3ncnc(NC4CC4)c3c2)cs1)C1CC1` [Example 903, N-cyclopropyl-N-((4-(4-(cyclopropylamino)quinazolin-6-yl)thiazole-2-yl)methyl)acetamide]: the inhibition at 10 µM on mGluR5 receptor was determined as 87%.
With `O=C1CCC(=O)N1Cc1cccc(-c2ccc3ncnc(NC4CC4)c3c2F)c1` [Example 904, 1-(3-(4-(cyclopropylamino)-5-fluoroquinazolin-6-yl)benzyl)pyrrolidine-2,5-dione], the IC50 on mGluR5 receptor came to 220 nM.
